In patent publication US20250179078A1, “INHIBITORS OF NLRP3” (PTC THERAPEUTICS, INC., priority 2022, published 2025):

Biological target: T1, NLRP3 (Homo sapiens, UniProt Q96P20)
T1 construct: host or cells: THP-1 cells differentiated with PMA
Assay: IL-1β Secretion Assay (NLRP3-dependent IL1β secretion in THP1 cells)
Format: cell-based
Settings: PMA-differentiated THP-1 cells; compounds incubated 20 h; 2.5 μM Nigericin 3 h; HTRF IL-1β readout; read-out: IC50 IL-1β Inhibition
How it was run: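 THP-1 cells differentiated with 100 ng/mL PMA for 24 h, then given compound (7-point 3-fold series, 1:200 from DMSO) for 20 h in RPMI+5% FBS. NLRP3 activated with 2.5 μM nigericin for 3 h; secreted IL-1β measured by HTRF; IC50 from logistic fit of % inhibition.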

T1 sequence (Q96P20 whole entry): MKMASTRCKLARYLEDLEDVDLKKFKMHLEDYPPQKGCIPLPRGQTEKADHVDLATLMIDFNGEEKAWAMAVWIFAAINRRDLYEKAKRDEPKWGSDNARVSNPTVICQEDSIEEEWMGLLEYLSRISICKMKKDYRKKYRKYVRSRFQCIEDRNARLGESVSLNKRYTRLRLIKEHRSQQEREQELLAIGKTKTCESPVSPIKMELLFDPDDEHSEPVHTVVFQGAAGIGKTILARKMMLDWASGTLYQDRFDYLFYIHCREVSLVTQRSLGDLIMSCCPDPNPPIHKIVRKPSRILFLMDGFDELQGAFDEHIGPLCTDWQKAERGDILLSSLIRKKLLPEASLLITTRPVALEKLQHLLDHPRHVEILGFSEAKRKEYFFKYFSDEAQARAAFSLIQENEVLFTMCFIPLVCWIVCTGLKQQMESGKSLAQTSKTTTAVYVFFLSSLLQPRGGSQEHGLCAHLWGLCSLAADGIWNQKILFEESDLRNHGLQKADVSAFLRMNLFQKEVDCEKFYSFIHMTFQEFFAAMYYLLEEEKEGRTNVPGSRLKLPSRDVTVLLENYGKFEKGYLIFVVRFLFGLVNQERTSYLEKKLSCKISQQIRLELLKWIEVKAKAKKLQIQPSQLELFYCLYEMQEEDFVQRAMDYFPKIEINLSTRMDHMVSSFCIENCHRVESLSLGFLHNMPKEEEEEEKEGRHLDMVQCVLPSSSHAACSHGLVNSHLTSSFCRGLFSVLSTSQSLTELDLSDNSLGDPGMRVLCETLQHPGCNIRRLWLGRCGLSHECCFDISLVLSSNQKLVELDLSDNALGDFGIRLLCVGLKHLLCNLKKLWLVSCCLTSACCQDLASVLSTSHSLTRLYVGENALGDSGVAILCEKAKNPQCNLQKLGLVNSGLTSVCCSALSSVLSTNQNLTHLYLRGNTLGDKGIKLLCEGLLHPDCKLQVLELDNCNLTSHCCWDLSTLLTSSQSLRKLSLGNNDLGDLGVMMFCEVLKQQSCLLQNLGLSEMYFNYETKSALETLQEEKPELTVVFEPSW

Structure (SMILES)	IC50 [nM]
C[C@]1(O)C[C@@H](Nc2nnc(-c3ccc(Cl)cc3C(F)(F)F)c3cncn23)C1 [Compound 298, (1s,3s)-3-({1-[4-chloro-2-(trifluoromethyl)phenyl]imidazo[1,5-d][1,2,4]triazin-4-yl}amino)-1-methylcyclobutan-1-ol]	1 to 10
Cc1ccc(-c2nnc(N[C@@H]3CCCN(CCO)C3)n3cccc23)c(OC(F)F)c1 [Compound 45, 2-[(3R)-3-({1-[2-(difluoromethoxy)-4-methylphenyl]pyrrolo[1,2-d][1,2,4]triazin-4-yl}amino)piperidin-1-yl]ethan-1-ol]	10 to 100
CC(Nc1nnc(-c2ccc(C(F)(F)F)cc2OC(F)F)c2cccn12)c1cccc(O)c1 (centres unmarked) [Compound 89, 3-[1-({1-[2-(difluoromethoxy)-4-(trifluoromethyl)phenyl]pyrrolo[1,2-d][1,2,4]triazin-4-yl}amino)ethyl]phenol]	1 to 10
COc1ccc(-c2nnc(NC[C@@H](C)O)n3cccc23)c(OC(F)(F)F)c1 [Compound 70, (2R)-1-({1-[4-methoxy-2-(trifluoromethoxy)phenyl]pyrrolo[1,2-d][1,2,4]triazin-4-yl}amino)propan-2-ol]	1 to 10
Cc1ccc(-c2nnc(N[C@H]3C[C@@](C)(O)C3)n3cncc23)c(OC(F)(F)F)c1 [Compound 332, (1s,3s)-1-methyl-3-({1-[4-methyl-2-(trifluoromethoxy)phenyl]imidazo[1,5-d][1,2,4]triazin-4-yl}amino)cyclobutan-1-ol]	10 to 100
O[C@@H]1COCC[C@H]1Nc1nnc(-c2ccc(C3CC3)cc2CC(F)(F)F)c2cncn12 [Compound 351, (3S,4R)-4-({1-[4-cyclopropyl-2-(2,2,2-trifluoroethyl)phenyl]imidazo[1,5-d][1,2,4]triazin-4-yl}amino)oxan-3-ol]	1 to 10
COc1ccc(-c2nnc(Nc3cc[nH]n3)n3ccc(F)c23)c(C(F)(F)F)c1 [Compound 117, 8-fluoro-1-[4-methoxy-2-(trifluoromethyl)phenyl]-N-(1H-pyrazol-3-yl)pyrrolo[1,2-d][1,2,4]triazin-4-amine]	10 to 100
C[C@]1(O)C[C@@H](Nc2nnc(-c3ccc(C(F)(F)F)cc3C3CC3)c3cncn23)C1 [Compound 399, (1s,3s)-3-({1-[2-cyclopropyl-4-(trifluoromethyl)phenyl]imidazo[1,5-d][1,2,4]triazin-4-yl}amino)-1-methylcyclobutan-1-ol]	1 to 10
FC(F)(F)Cc1cc(C(F)(F)F)ccc1-c1nnc(Nc2cc[nH]n2)n2cncc12 [Compound 267, N-(1H-pyrazol-3-yl)-1-[2-(2,2,2-trifluoroethyl)-4-(trifluoromethyl)phenyl]imidazo[1,5-d][1,2,4]triazin-4-amine]	1 to 10
Cc1cc2c(-c3ccc(C(F)(F)F)cc3OC(F)F)nnc(N[C@@H]3CCCC[C@H]3O)n2n1 [Compound 381, (1R,2R)-2-({4-[2-(difluoromethoxy)-4-(trifluoromethyl)phenyl]-2-methylpyrazolo[1,5-d][1,2,4]triazin-7-yl}amino)cyclohexan-1-ol]	10 to 100
CC(C)CN1CCC[C@@H](Nc2nnc(-c3ccc(C(F)(F)F)cc3C(F)(F)F)c3cccn23)C1 [Compound 10, 1-[2,4-bis(trifluoromethyl)phenyl]-N-[(3R)-1-(2-methylpropyl)piperidin-3-yl]pyrrolo[1,2-d][1,2,4]triazin-4-amine]	1 to 10
CCN1CCC[C@@H](Nc2nnc(-c3ccc(C(F)(F)F)cc3F)c3cccn23)C1 [Compound 20, N-[(3R)-1-ethylpiperidin-3-yl]-1-[2-fluoro-4-(trifluoromethyl)phenyl]pyrrolo[1,2-d][1,2,4]triazin-4-amine]	1 to 10
CCN1CCC[C@@H](Nc2nnc(-c3ccc(OC)cc3OC(F)(F)F)c3cc(C)nn23)C1 [Compound 371, N-[(3R)-1-ethylpiperidin-3-yl]-4-[4-methoxy-2-(trifluoromethoxy)phenyl]-2-methylpyrazolo[1,5-d][1,2,4]triazin-7-amine]	1 to 10
OCCN1CCC[C@@H](Nc2nnc(-c3ccc(C(F)(F)F)cc3C(F)(F)F)c3cncn23)C1 [Compound 253, 2-[(3R)-3-({1-[2,4-bis(trifluoromethyl)phenyl]imidazo[1,5-d][1,2,4]triazin-4-yl}amino)piperidin-1-yl]ethan-1-ol]	1 to 10
Cc1ccc(-c2nnc(N[C@@H]3CCCN(C)C3)n3cccc23)c(OC(F)F)c1 [Compound 33, 1-[2-(difluoromethoxy)-4-methylphenyl]-N-[(3R)-1-methylpiperidin-3-yl]pyrrolo[1,2-d][1,2,4]triazin-4-amine]	1 to 10
COc1ccc(-c2nnc(NC3CCNC3=O)n3cccc23)c(CC(F)(F)F)c1 (centres unmarked) [Compound 139, 3-({1-[4-methoxy-2-(2,2,2-trifluoroethyl)phenyl]pyrrolo[1,2-d][1,2,4]triazin-4-yl}amino)pyrrolidin-2-one]	1 to 10
CN1C[C@H](F)C[C@@H](Nc2nnc(-c3ccc(C(F)(F)F)cc3C(F)(F)F)c3c(F)ccn23)C1 [Compound 31, 1-[2,4-bis(trifluoromethyl)phenyl]-8-fluoro-N-[(3R,5R)-5-fluoro-1-methylpiperidin-3-yl]pyrrolo[1,2-d][1,2,4]triazin-4-amine]	1 to 10
CC(Nc1nnc(-c2ccc(C(F)(F)F)cc2C(F)(F)F)c2ccnn12)c1cccc(O)c1 (centres unmarked) [Compound 395, 3-[1-({4-[2,4-bis(trifluoromethyl)phenyl]pyrazolo[1,5-d][1,2,4]triazin-7-yl}amino)ethyl]phenol]	1 to 10
Cc1cc(C(F)(F)F)cc(OC(F)F)c1-c1nnc(N[C@@H]2CCCN(C)C2)n2cccc12 [Compound 49, 1-[2-(difluoromethoxy)-6-methyl-4-(trifluoromethyl)phenyl]-N-[(3R)-1-methylpiperidin-3-yl]pyrrolo[1,2-d][1,2,4]triazin-4-amine]	10 to 100
COc1ccc(-c2nnc(N[C@@H]3CCCN(CCO)C3)n3cccc23)c(OC2CC2)c1 [Compound 143, 2-[(3R)-3-({1-[2-(cyclopropyloxy)-4-methoxyphenyl]pyrrolo[1,2-d][1,2,4]triazin-4-yl}amino)piperidin-1-yl]ethan-1-ol]	10 to 100
COc1ccc(-c2nnc(N[C@H]3C[C@@](C)(O)C3)n3cccc23)c(Cl)c1 [Compound 72, (1s,3s)-3-{[1-(2-chloro-4-methoxyphenyl)pyrrolo[1,2-d][1,2,4]triazin-4-yl]amino}-1-methylcyclobutan-1-ol]	10 to 100
FC(F)Oc1ccc(-c2nnc(Nc3cc[nH]n3)n3cccc23)c(OC(F)(F)F)c1 [Compound 155, 1-[4-(difluoromethoxy)-2-(trifluoromethoxy)phenyl]-N-(1H-pyrazol-3-yl)pyrrolo[1,2-d][1,2,4]triazin-4-amine]	10 to 100

Now from value to compound:

IC50 [nM]	Structure (SMILES)
1 to 10	COc1ccc(-c2nnc(N[C@@H]3CCCN(CCO)C3)n3ccc(F)c23)c(OC(F)(F)F)c1 [Compound 51, 2-[(3R)-3-({8-fluoro-1-[4-methoxy-2-(trifluoromethoxy)phenyl]pyrrolo[1,2-d][1,2,4]triazin-4-yl}amino)piperidin-1-yl]ethan-1-ol]
1 to 10	COc1ccc(-c2nnc(N[C@@H]3CCCN(C)C3)n3ccc(F)c23)c(OC(F)(F)F)c1 [Compound 39, 8-fluoro-1-[4-methoxy-2-(trifluoromethoxy)phenyl]-N-[(3R)-1-methylpiperidin-3-yl]pyrrolo[1,2-d][1,2,4]triazin-4-amine]
1 to 10	Cc1ccc(-c2nnc(N[C@@H]3CCCN(C)C3)n3cccc23)c(OC(F)(F)F)c1 [Compound 36, N-[(3R)-1-methylpiperidin-3-yl]-1-[4-methyl-2-(trifluoromethoxy)phenyl]pyrrolo[1,2-d][1,2,4]triazin-4-amine]
1 to 10	O[C@@H]1COCC[C@@H]1Nc1nnc(-c2ccc(C(F)(F)F)cc2CC(F)(F)F)c2cccn12 [Compound 115, (3S,4S)-4-({1-[2-(2,2,2-trifluoroethyl)-4-(trifluoromethyl)phenyl]pyrrolo[1,2-d][1,2,4]triazin-4-yl}amino)oxan-3-ol]
< 1	Cc1ccc(-c2nnc(N[C@@H]3CCCN(C)C3)n3cccc23)c(CC(F)(F)F)c1 [Compound 159, N-[(3R)-1-methylpiperidin-3-yl]-1-[4-methyl-2-(2,2,2-trifluoroethyl)phenyl]pyrrolo[1,2-d][1,2,4]triazin-4-amine]
< 1	CCN1CCC[C@@H](Nc2nnc(-c3ccc(C(F)(F)F)cc3OCF)c3cccn23)C1 [Compound 169, N-[(3R)-1-ethylpiperidin-3-yl]-1-[2-(fluoromethoxy)-4-(trifluoromethyl)phenyl]pyrrolo[1,2-d][1,2,4]triazin-4-amine]
< 1	C[C@]1(CO)C[C@@H](Nc2nnc(-c3ccc(C(F)(F)F)cc3CC(F)(F)F)c3cncn23)C1 [Compound 343, [(1s,3s)-1-methyl-3-({1-[2-(2,2,2-trifluoroethyl)-4-(trifluoromethyl)phenyl]imidazo[1,5-d][1,2,4]triazin-4-yl}amino)cyclobutyl]methanol]
< 1	CN1CCC[C@@H](Nc2nnc(-c3ccc(C4CC4)cc3C(F)(F)F)c3cncn23)C1 [Compound 207, 1-[4-cyclopropyl-2-(trifluoromethyl)phenyl]-N-[(3R)-1-methylpiperidin-3-yl]imidazo[1,5-d][1,2,4]triazin-4-amine]
< 1	CN1CCC[C@@H](Nc2nnc(-c3ccc(C4CC4)cc3OC(F)(F)F)c3cccn23)C1 [Compound 37, 1-[4-cyclopropyl-2-(trifluoromethoxy)phenyl]-N-[(3R)-1-methylpiperidin-3-yl]pyrrolo[1,2-d][1,2,4]triazin-4-amine]
< 1	CN1CCC[C@@H](Nc2nnc(-c3ccc(C(F)(F)F)cc3OC(F)(F)F)c3cccn23)C1 [Compound 140, N-[(3R)-1-methylpiperidin-3-yl]-1-[2-(trifluoromethoxy)-4-(trifluoromethyl)phenyl]pyrrolo[1,2-d][1,2,4]triazin-4-amine]
